Laboratory results from patent publication US12194021B2, “Modified herbal compositions for neuromodulation” (University of Southern California, priority 2021, dated 2025).

Tests used:
[1] = Water solubility; type: physicochemical; details: compared with natural DHM
[2] = test system: gephyrin; assay: Gephyrin level measurement (Western blot, hippocampus and cortex); type: in vivo; details: TG-mice, 1 mg/kg oral daily
Description: 3) Gephyrin level measurement: Gephyrin amounts in control (group housing), AD, and AD+D-P group were determined. All mice brains were taken and prepared for assays. SDS-PAGE and Western blot analysis. Proteins were separated on SDS-polyacrylamide gels (Sigma) using the Bio-Rad Mini-Protean 3 cell system. Proteins were transferred on a polyvinylidene difluoride (PDVF) membrane (Sigma) and blocked with 4% non-fat dry milk. Blots were incubated overnight at 4° C. with rabbit anti-gephyrin (Santa Cruz, 1:200) and mouse anti-β-actin (Sigma, 1:1000), followed by HRP-conjugated secondary antibodies (1:5000) for two hours at room temperature. Bands were detected using ECL detection kit (Sigma) and exposed to X-ray films. Bands were analyzed by densitometry using ImageQuant5.2 (Molecular Dynamics), normalized to the corresponding β-actin signal and compared.
Gephyrin is the key scaffolding protein that organizes the inhibitory postsynaptic receptor density involving GABAAR clustering at postsynaptic sites. Gephyrin not only has a structural function at GABAergic synaptic sites, but also plays a crucial role in synaptic dynamics. Therefore, we examined the protein levels of gephyrin in the hippocampus (left) and cortex (right) in the TG-mice and in D-P treated TG-mice compared to wt control. […]

[3] = Two-week Functional Observational Battery (FOB); type: in vivo, rats
Description: The results shown in Table 2 indicate that D-P is the safe compound. During the two weeks, we checked the animals' fur, response to handling, etc. […] We also made sure to observe the animals continuously for 4 hours after each treatment. We mainly focused on any negative changes in the animal's mental behavior, autonomous activity, hair, glandular secretion, feces, death, etc. We found no notable changes with these evaluations.

[4] = female rats, 1 mg/kg oral daily, day0
[5] = female rats, 1 mg/kg oral daily, day3
[6] = female rats, 1 mg/kg oral daily, day5
[7] = female rats, 1 mg/kg oral daily, day8
[8] = female rats, 1 mg/kg oral daily, day10
[9] = female rats, 1 mg/kg oral daily, day12
[10] = female rats, 1 mg/kg oral daily, day14
[11] = female rats, 10 mg/kg oral daily, day0
[12] = female rats, 10 mg/kg oral daily, day3
[13] = female rats, 10 mg/kg oral daily, day5
[14] = female rats, 10 mg/kg oral daily, day8
[15] = female rats, 10 mg/kg oral daily, day10
[16] = female rats, 10 mg/kg oral daily, day12
[17] = female rats, 10 mg/kg oral daily, day14
[18] = female rats, 100 mg/kg oral daily, day0
[19] = female rats, 100 mg/kg oral daily, day3
[20] = female rats, 100 mg/kg oral daily, day5
[21] = female rats, 100 mg/kg oral daily, day8
[22] = female rats, 100 mg/kg oral daily, day10
[23] = female rats, 100 mg/kg oral daily, day12
[24] = female rats, 100 mg/kg oral daily, day14
[25] = male rats, 1 mg/kg oral daily, day0
[26] = male rats, 1 mg/kg oral daily, day3
[27] = male rats, 1 mg/kg oral daily, day5
[28] = male rats, 1 mg/kg oral daily, day8
[29] = male rats, 1 mg/kg oral daily, day10
[30] = male rats, 1 mg/kg oral daily, day12
[31] = male rats, 1 mg/kg oral daily, day14
[32] = male rats, 10 mg/kg oral daily, day0
[33] = male rats, 10 mg/kg oral daily, day3
[34] = male rats, 10 mg/kg oral daily, day5
[35] = male rats, 10 mg/kg oral daily, day8
[36] = male rats, 10 mg/kg oral daily, day10
[37] = male rats, 10 mg/kg oral daily, day12
[38] = male rats, 10 mg/kg oral daily, day14
[39] = male rats, 100 mg/kg oral daily, day0
[40] = male rats, 100 mg/kg oral daily, day3
[41] = male rats, 100 mg/kg oral daily, day5
[42] = male rats, 100 mg/kg oral daily, day8
[43] = male rats, 100 mg/kg oral daily, day10
[44] = male rats, 100 mg/kg oral daily, day12
[45] = male rats, 100 mg/kg oral daily, day14
[46] = rats, oral daily 1, 10 and 100 mg/kg, two weeks

piperidin-1-ium (2R,3R)-2-(3,4-dihydroxy-5-oxidophenyl)-3,5-dihydroxy-4-oxochroman-7-olate [D-P]
water solubility [1]: can be dissolved into water | gephyrin levels ([2]; 1 month): partly recovered | gephyrin levels ([2]; 3 months): restored to control levels | Breath (B) [3, 4]: 85 ± 0.5 per minute | Pulse (P) [3, 4]: 366 ± 1.0 beats/minute | Temperature (T) [3, 4]: 36.5 ± 0.4 °C | Breath (B) [3, 5]: 85 ± 0.5 per minute | Pulse (P) [3, 5]: 366 ± 0.4 beats/minute | Temperature (T) [3, 5]: 36.5 ± 0.3 °C | Breath (B) [3, 6]: 85 ± 0.4 per minute | Pulse (P) [3, 6]: 366 ± 1.3 beats/minute | Temperature (T) [3, 6]: 36.5 ± 1.1 °C | Breath (B) [3, 7]: 85 ± 0.5 per minute | Pulse (P) [3, 7]: 366 ± 4.1 beats/minute | Temperature (T) [3, 7]: 36.5 ± 1.2 °C | Breath (B) [3, 8]: 85 ± 0.5 per minute | Pulse (P) [3, 8]: 366 ± 1.0 beats/minute | Temperature (T) [3, 8]: 36.5 ± 0.4 °C | Breath (B) [3, 9]: 85 ± 0.5 per minute | Pulse (P) [3, 9]: 366 ± 7.4 beats/minute | Temperature (T) [3, 9]: 36.5 ± 0.3 °C | Breath (B) [3, 10]: 85 ± 0.4 per minute | Pulse (P) [3, 10]: 366 ± 6.3 beats/minute | Temperature (T) [3, 10]: 36.5 ± 1.1 °C | Breath (B) [3, 11]: 86 ± 0.6 per minute | Pulse (P) [3, 11]: 367 ± 0.5 beats/minute | Temperature (T) [3, 11]: 36.3 ± 0.6 °C | Breath (B) [3, 12]: 86 ± 0.5 per minute | Pulse (P) [3, 12]: 371 ± 2.2 beats/minute | Temperature (T) [3, 12]: 36.3 ± 0.7 °C | Breath (B) [3, 13]: 86 ± 0.5 per minute | Pulse (P) [3, 13]: 369 ± 6.8 beats/minute | Temperature (T) [3, 13]: 36.3 ± 1.0 °C | Breath (B) [3, 14]: 86 ± 0.5 per minute | Pulse (P) [3, 14]: 368 ± 6.1 beats/minute | Temperature (T) [3, 14]: 36.3 ± 1.2 °C | Breath (B) [3, 15]: 86 ± 0.6 per minute | Pulse (P) [3, 15]: 366 ± 6.5 beats/minute | Temperature (T) [3, 15]: 36.3 ± 0.6 °C | Breath (B) [3, 16]: 86 ± 0.5 per minute | Pulse (P) [3, 16]: 367 ± 9.2 beats/minute | Temperature (T) [3, 16]: 36.3 ± 0.7 °C | Breath (B) [3, 17]: 86 ± 0.5 per minute | Pulse (P) [3, 17]: 372 ± 6.8 beats/minute | Temperature (T) [3, 17]: 36.3 ± 1.0 °C | Breath (B) [3, 18]: 85 ± 0.6 per minute | Pulse (P) [3, 18]: 366 ± 9.5 beats/minute | Temperature (T) [3, 18]: 36.2 ± 0.7 °C | Breath (B) [3, 19]: 85 ± 0.4 per minute | Pulse (P) [3, 19]: 364 ± 0.5 beats/minute | Temperature (T) [3, 19]: 36.2 ± 0.7 °C | Breath (B) [3, 20]: 85 ± 0.8 per minute | Pulse (P) [3, 20]: 371 ± 1.5 beats/minute | Temperature (T) [3, 20]: 36.2 ± 0.7 °C | Breath (B) [3, 21]: 85 ± 0.6 per minute | Pulse (P) [3, 21]: 367 ± 1.5 beats/minute | Temperature (T) [3, 21]: 36.2 ± 0.9 °C | Breath (B) [3, 22]: 85 ± 0.6 per minute | Pulse (P) [3, 22]: 369 ± 9.5 beats/minute | Temperature (T) [3, 22]: 36.2 ± 0.7 °C | Breath (B) [3, 23]: 85 ± 0.4 per minute | Pulse (P) [3, 23]: 373 ± 6.5 beats/minute | Temperature (T) [3, 23]: 36.2 ± 0.7 °C | Breath (B) [3, 24]: 85 ± 0.8 per minute | Pulse (P) [3, 24]: 371 ± 4.5 beats/minute | Temperature (T) [3, 24]: 36.2 ± 0.7 °C | Breath (B) [3, 25]: 84 ± 0.3 per minute | Pulse (P) [3, 25]: 367 ± 2.1 beats/minute | Temperature (T) [3, 25]: 36.1 ± 0.3 °C | Breath (B) [3, 26]: 85 ± 0.4 per minute | Pulse (P) [3, 26]: 366 ± 2.5 beats/minute | Temperature (T) [3, 26]: 36.4 ± 0.7 °C | Breath (B) [3, 27]: 85 ± 0.5 per minute | Pulse (P) [3, 27]: 366 ± 1.5 beats/minute | Temperature (T) [3, 27]: 36.5 ± 0.5 °C | Breath (B) [3, 28]: 85 ± 0.5 per minute | Pulse (P) [3, 28]: 366 ± 1.3 beats/minute | Temperature (T) [3, 28]: 36.4 ± 1.0 °C | Breath (B) [3, 29]: 85 ± 0.3 per minute | Pulse (P) [3, 29]: 366 ± 0.2 beats/minute | Temperature (T) [3, 29]: 36.5 ± 0.3 °C | Breath (B) [3, 30]: 85 ± 0.5 per minute | Pulse (P) [3, 30]: 366 ± 1.5 beats/minute | Temperature (T) [3, 30]: 36.5 ± 0.5 °C | Breath (B) [3, 31]: 85 ± 0.5 per minute | Pulse (P) [3, 31]: 366 ± 1.5 beats/minute | Temperature (T) [3, 31]: 36.5 ± 0.5 °C | Breath (B) [3, 32]: 86 ± 0.2 per minute | Pulse (P) [3, 32]: 366 ± 5.2 beats/minute | Temperature (T) [3, 32]: 36.5 ± 0.5 °C | Breath (B) [3, 33]: 86 ± 0.6 per minute | Pulse (P) [3, 33]: 370 ± 0.5 beats/minute | Temperature (T) [3, 33]: 36.4 ± 0.6 °C | Breath (B) [3, 34]: 86 ± 0.5 per minute | Pulse (P) [3, 34]: 374 ± 0.5 beats/minute | Temperature (T) [3, 34]: 36.5 ± 0.5 °C | Breath (B) [3, 35]: 86 ± 0.5 per minute | Pulse (P) [3, 35]: 370 ± 1.9 beats/minute | Temperature (T) [3, 35]: 36.4 ± 1.1 °C | Breath (B) [3, 36]: 86 ± 0.2 per minute | Pulse (P) [3, 36]: 372 ± 6.2 beats/minute | Temperature (T) [3, 36]: 36.5 ± 0.5 °C | Breath (B) [3, 37]: 86 ± 0.5 per minute | Pulse (P) [3, 37]: 373 ± 4.5 beats/minute | Temperature (T) [3, 37]: 36.5 ± 0.5 °C | Breath (B) [3, 38]: 86 ± 0.5 per minute | Pulse (P) [3, 38]: 371 ± 7.5 beats/minute | Temperature (T) [3, 38]: 36.5 ± 0.5 °C | Breath (B) [3, 39]: 86 ± 0.5 per minute | Pulse (P) [3, 39]: 371 ± 0.6 beats/minute | Temperature (T) [3, 39]: 36.4 ± 1.0 °C | Breath (B) [3, 40]: 86 ± 0.3 per minute | Pulse (P) [3, 40]: 365 ± 8.1 beats/minute | Temperature (T) [3, 40]: 36.3 ± 0.7 °C | Breath (B) [3, 41]: 86 ± 0.3 per minute | Pulse (P) [3, 41]: 367 ± 0.9 beats/minute | Temperature (T) [3, 41]: 36.4 ± 0.8 °C | Breath (B) [3, 42]: 86 ± 0.5 per minute | Pulse (P) [3, 42]: 365 ± 9.5 beats/minute | Temperature (T) [3, 42]: 36.3 ± 1.5 °C | Breath (B) [3, 43]: 86 ± 0.5 per minute | Pulse (P) [3, 43]: 368 ± 8.7 beats/minute | Temperature (T) [3, 43]: 36.4 ± 1.0 °C | Breath (B) [3, 44]: 86 ± 0.3 per minute | Pulse (P) [3, 44]: 371 ± 5.9 beats/minute | Temperature (T) [3, 44]: 36.4 ± 0.8 °C | Breath (B) [3, 45]: 86 ± 0.3 per minute | Pulse (P) [3, 45]: 369 ± 5.9 beats/minute | Temperature (T) [3, 45]: 36.4 ± 0.8 °C | FOB overall observation [3, 46]: did not find any notable negative changes | deaths or injuries [3, 46]: No deaths or injuries
